≈ marks a conversion by molar mass, not a printed value.
Columns and labels:
[1] = tested on: DHD/K12/Trb peritoneal carcinomatosis; test: anti-tumoral effect in vivo, peritoneal carcinomatosis and tumoral ascites induced by DHD/K12/Trb in BDIX rats; parameters: species or system rat; details: 40 mg/kg intraperitoneally
Method: Animals treated: 36 male rats BDIX 7 weeks' old (about 200 g) were divided according to experimental criteria into the following groups (each group consists of 12 animals):
1. Control Group: inoculum DHD/K12/trb.
2. CPT-11 Group: inoculum DHD/K12/trb+treatment CTP-11 40 mg/Kg intraperitoneally.
After 14 days of stabling, 1×10^6 DHD/K12/trb cells per rat were inoculated intraperitoneally. After 7 days the therapeutic treatment envisaged was initiated, consisting of 4 therapy cycles. The sacrifice of the animals was established 7 days after the last pharmacological treatment. The animals were evaluated once a week for the appearance of possible signs of toxicity, by measuring the body weight, and for the possible appearance of ascites. At the moment of sacrifice an intracardiac sampling was effected in all the animals and the haematological toxicity due to the pharmacological treatment was evaluated. The tumours and ascites were removed and measured. The tissues removed were fixed in formalin for histological and immunohistochemical evaluation.

[2] = tested on: Adenocarcinoma cells of the colon of a rat DHD/K12/Trb; test: cell vitality, Tripan blue exclusion method; assay type: cell-based; details: 24 h of treatment, ONCOFID-S derivatized at 3.5% w/w (Example 2)
Source text: Adenocarcinoma cells of the colon of a rat DHD/K12/Trb expressing the receptor for HA CD44
Adenocarcinoma cells of the colon of a rat DHD/K12/Trb.

DHD/Trb cells = test: fluorescence microscopy of intracellular distribution/expression of E-cadherin, β-catenin, APC, GSK-3β and CK20; assay type: cell-based, rat; details: non-conjugated SN38
Source text: Due to the importance of the role of regulating the β-catenin in the formation and progression of colon-rectal carcinomas, it was verified whether the treatment with Oncofid-S is capable of modifying the intracellular expression and distribution of the molecules involved in the control process of the above protein, as previously described. The effect of the treatment with ONCOFID-S on the intracellular distribution of E-cadherin, β-catenin, APC e GSK-3β in the DHD/Trb cells was therefore analyzed by means of fluorescence microscopy. Specific antibodies were used for the above proteins, visualizing them with the use of secondary antibodies bound to fluorochromes such as rodamin and fluoroescein.

[3] = tested on: Adenocarcinoma cells of the colon of a rat DHD/K12/Trb; test: cytofluorometric analysis of cell phases (DNA content, propidium iodide) and wash out test; assay type: cell-based; details: 0.5 μg/ml, 24 h of treatment; ONCOFID-S 3.5% w/w
Method: Adenocarcinoma cells of the colon of a rat DHD/K12/Trb
As described for examples 8 and 9.
The effect of the ONCOFID-S conjugate (at a concentration of 0.5 μg/ml) was determined using an analysis of the cytofluorometric type; after 24 h of pharmacological treatment, the cell phases are identified with FACS-Scan (Becton Dickinson) by cytofluorometric, analysis of the DNA content after colouring the cells with propidium iodide.
In order to evaluate whether the data obtained persist with time, the Wash out test was effected in which, after 48 h of treatment, the culture medium is substituted with fresh medium without treatment: the cell phases were then defined again at the point defined as TO and, after 24 h of culture, T24.

IC50 [2] | SMILES | animals with bloody ascites [1] | average reduction in the tumoral mass ([1]; vs control) | modifications relating to cell differentiation (APC/GSK-3β, β-catenin, E-cadherin, CK20) (DHD/Trb cells) | gap1 and S phases of the cell cycle [3]
– | CCc1c2c(nc3ccc(OC(=O)N4CCC(N5CCCCC5)CC4)cc13)-c1cc3c(c(=O)n1C2)COC(=O)[C@]3(O)CC [CPT-11, Irinotecan] | 83% | 62% | – | –
1.4 µg/mL (≈ 3.57 µM) | CCc1c2c(nc3ccc(O)cc13)-c1cc3c(c(=O)n1C2)COC(=O)[C@]3(O)CC [SN38] | – | – | not revealed | increases both the first phase and the S phase
